BigSolDB 2.1

For `OC(Cc1ccccc1Cl)(Cn1[nH]cnc1=S)C1(Cl)CC1` (centres undefined), the solubility (mole fraction) (in acetonitrile, 283.15 K) was 0.00629, the solubility (mole fraction) (in acetonitrile, 288.15 K) was 0.008 and the solubility (mole fraction) (in acetonitrile, 293.15 K) was 0.0103. For the same compound, the solubility (mole fraction) (in acetonitrile, 298.15 K) was 0.0126, the solubility (mole fraction) (in acetonitrile, 303.15 K) was 0.0171 and the solubility (mole fraction) (in acetonitrile, 308.15 K) was 0.0214. The solubility (mole fraction) (in acetonitrile, 313.15 K) was 0.0254, the solubility (mole fraction) (in isopropanol, 283.15 K) was 0.0115 and the solubility (mole fraction) (in isopropanol, 288.15 K) was 0.0142. The solubility (mole fraction) (in isopropanol, 293.15 K) was 0.0176, the solubility (mole fraction) (in isopropanol, 298.15 K) was 0.0215 and the solubility (mole fraction) (in isopropanol, 303.15 K) was 0.0268. It also gave a solubility (mole fraction) (in isopropanol, 308.15 K) of 0.0331, a solubility (mole fraction) (in isopropanol, 313.15 K) of 0.0385 and a solubility (mole fraction) (in methanol, 283.15 K) of 0.01. For the same compound, the solubility (mole fraction) (in methanol, 288.15 K) was 0.0127, the solubility (mole fraction) (in methanol, 293.15 K) was 0.0154 and the solubility (mole fraction) (in methanol, 298.15 K) was 0.019. The solubility (mole fraction) (in methanol, 303.15 K) was 0.0232, the solubility (mole fraction) (in methanol, 308.15 K) was 0.0307 and the solubility (mole fraction) (in methanol, 313.15 K) was 0.0371. The solubility (mole fraction) (in n-butanol, 283.15 K) was 0.0147, the solubility (mole fraction) (in n-butanol, 288.15 K) was 0.018 and the solubility (mole fraction) (in n-butanol, 293.15 K) was 0.0215. For the same compound, the solubility (mole fraction) (in n-butanol, 298.15 K) was 0.0268, the solubility (mole fraction) (in n-butanol, 303.15 K) was 0.0327 and the solubility (mole fraction) (in n-butanol, 308.15 K) was 0.0417. The solubility (mole fraction) (in n-butanol, 313.15 K) was 0.0513, the solubility (mole fraction) (in n-propanol, 283.15 K) was 0.0125 and the solubility (mole fraction) (in n-propanol, 288.15 K) was 0.0161. It also gave a solubility (mole fraction) (in n-propanol, 293.15 K) of 0.0199, a solubility (mole fraction) (in n-propanol, 298.15 K) of 0.0248 and a solubility (mole fraction) (in n-propanol, 303.15 K) of 0.0305. It also gave a solubility (mole fraction) (in n-propanol, 308.15 K) of 0.0373, a solubility (mole fraction) (in n-propanol, 313.15 K) of 0.0465 and a solubility (mole fraction) (in sec-butanol, 283.15 K) of 0.00735. The solubility (mole fraction) (in sec-butanol, 288.15 K) was 0.00954, the solubility (mole fraction) (in sec-butanol, 293.15 K) was 0.0124 and the solubility (mole fraction) (in sec-butanol, 298.15 K) was 0.0152. It also gave a solubility (mole fraction) (in sec-butanol, 303.15 K) of 0.0191, a solubility (mole fraction) (in sec-butanol, 308.15 K) of 0.0259 and a solubility (mole fraction) (in sec-butanol, 313.15 K) of 0.0321. It also gave a solubility (mole fraction) (in toluene, 283.15 K) of 0.00196, a solubility (mole fraction) (in toluene, 288.15 K) of 0.00287 and a solubility (mole fraction) (in toluene, 293.15 K) of 0.00368. The solubility (mole fraction) (in toluene, 298.15 K) was 0.00481, the solubility (mole fraction) (in toluene, 303.15 K) was 0.00574 and the solubility (mole fraction) (in toluene, 308.15 K) was 0.00782. It also gave a solubility (mole fraction) (in toluene, 313.15 K) of 0.0101.
